In patent US11339130B1 (Blade Therapeutics, Inc., priority 2016, dated 2022):
Where two headings read alike, the source gives them in different places.

Legend:
Assay type in all cases: biochemical
[1] = molecular target: T1, Human Calpain 9/NS1 (Homo sapiens, UniProt O14815); assay: Calpain inhibition continuous fluorescence (FRET) assay, Human Calpain 9/NS1; conditions: read-out: Human Calpain 9/NS1 IC50
T1 sequence (O14815 1-690): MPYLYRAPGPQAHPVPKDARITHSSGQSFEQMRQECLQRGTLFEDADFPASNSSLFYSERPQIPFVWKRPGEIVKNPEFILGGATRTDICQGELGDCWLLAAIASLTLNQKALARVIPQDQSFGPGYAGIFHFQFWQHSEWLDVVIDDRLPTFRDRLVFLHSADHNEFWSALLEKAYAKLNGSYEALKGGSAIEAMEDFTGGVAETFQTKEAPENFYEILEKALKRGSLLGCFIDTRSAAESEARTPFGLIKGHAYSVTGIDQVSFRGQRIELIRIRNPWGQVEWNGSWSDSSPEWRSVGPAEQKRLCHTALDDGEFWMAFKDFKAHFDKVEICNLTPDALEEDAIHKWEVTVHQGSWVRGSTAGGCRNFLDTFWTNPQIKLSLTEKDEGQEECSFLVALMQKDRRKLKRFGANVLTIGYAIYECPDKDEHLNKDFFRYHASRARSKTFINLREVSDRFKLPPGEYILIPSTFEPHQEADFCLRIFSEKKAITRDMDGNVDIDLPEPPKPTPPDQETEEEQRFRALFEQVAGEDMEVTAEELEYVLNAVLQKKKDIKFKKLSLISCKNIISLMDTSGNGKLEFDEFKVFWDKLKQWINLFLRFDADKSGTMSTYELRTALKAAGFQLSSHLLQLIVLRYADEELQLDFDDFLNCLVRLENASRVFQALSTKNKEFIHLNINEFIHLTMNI
T1 sequence (P04632 1-268 partner): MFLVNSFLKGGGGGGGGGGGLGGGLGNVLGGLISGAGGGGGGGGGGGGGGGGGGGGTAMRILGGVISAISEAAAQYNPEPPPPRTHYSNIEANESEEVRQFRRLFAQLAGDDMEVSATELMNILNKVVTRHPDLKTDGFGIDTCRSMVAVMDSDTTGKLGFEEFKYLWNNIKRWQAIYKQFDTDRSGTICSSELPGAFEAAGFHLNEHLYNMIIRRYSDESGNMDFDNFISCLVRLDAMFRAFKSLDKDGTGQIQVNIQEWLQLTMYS
Outline: (§1)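 Buffer 50 mM Tris pH 7.5/100 mM NaCl/1 mM DTT; enzyme + cpd preinc 25C; start w/ FRET substrate + CaCl2; kinetic 490/520 nm, 10 min; slopes 1-5 min; 4-PL IC50.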

[2] = molecular target: T2, Human Calpain 2/NS1 (Homo sapiens, UniProt P17655); assay: Calpain inhibition continuous fluorescence (FRET) assay, Human Calpain 2/NS1; conditions: read-out: Human Calpain 2/NS1 IC50
T2 sequence (P17655 1-700): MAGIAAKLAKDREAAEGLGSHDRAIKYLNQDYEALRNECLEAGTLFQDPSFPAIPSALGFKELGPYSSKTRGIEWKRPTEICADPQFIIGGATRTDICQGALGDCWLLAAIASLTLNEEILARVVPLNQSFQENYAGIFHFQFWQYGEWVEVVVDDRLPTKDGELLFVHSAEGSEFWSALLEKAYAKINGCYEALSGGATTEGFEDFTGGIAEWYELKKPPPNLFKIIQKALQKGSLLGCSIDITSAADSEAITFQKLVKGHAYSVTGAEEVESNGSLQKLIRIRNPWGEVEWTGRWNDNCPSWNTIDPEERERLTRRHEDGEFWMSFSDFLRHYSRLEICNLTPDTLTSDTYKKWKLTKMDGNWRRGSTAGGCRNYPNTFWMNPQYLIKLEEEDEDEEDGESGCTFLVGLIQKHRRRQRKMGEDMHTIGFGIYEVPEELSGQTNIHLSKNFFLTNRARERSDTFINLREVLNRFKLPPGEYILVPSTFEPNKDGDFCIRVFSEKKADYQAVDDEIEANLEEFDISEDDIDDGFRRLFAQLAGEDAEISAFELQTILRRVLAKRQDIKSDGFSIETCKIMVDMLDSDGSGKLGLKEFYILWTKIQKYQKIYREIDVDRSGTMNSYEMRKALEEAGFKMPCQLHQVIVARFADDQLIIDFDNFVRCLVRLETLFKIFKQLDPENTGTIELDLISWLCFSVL
T2 sequence (P04632 1-268 partner): T1 sequence (P04632 1-268 partner)
Outline: as §1

[3] = molecular target: T3, Human Calpain 1/NS1 (Homo sapiens, UniProt P07384); assay: Calpain inhibition continuous fluorescence (FRET) assay, Human Calpain 1/NS1; conditions: read-out: Human Calpain 1/NS1 IC50
T3 sequence (P07384 1-714): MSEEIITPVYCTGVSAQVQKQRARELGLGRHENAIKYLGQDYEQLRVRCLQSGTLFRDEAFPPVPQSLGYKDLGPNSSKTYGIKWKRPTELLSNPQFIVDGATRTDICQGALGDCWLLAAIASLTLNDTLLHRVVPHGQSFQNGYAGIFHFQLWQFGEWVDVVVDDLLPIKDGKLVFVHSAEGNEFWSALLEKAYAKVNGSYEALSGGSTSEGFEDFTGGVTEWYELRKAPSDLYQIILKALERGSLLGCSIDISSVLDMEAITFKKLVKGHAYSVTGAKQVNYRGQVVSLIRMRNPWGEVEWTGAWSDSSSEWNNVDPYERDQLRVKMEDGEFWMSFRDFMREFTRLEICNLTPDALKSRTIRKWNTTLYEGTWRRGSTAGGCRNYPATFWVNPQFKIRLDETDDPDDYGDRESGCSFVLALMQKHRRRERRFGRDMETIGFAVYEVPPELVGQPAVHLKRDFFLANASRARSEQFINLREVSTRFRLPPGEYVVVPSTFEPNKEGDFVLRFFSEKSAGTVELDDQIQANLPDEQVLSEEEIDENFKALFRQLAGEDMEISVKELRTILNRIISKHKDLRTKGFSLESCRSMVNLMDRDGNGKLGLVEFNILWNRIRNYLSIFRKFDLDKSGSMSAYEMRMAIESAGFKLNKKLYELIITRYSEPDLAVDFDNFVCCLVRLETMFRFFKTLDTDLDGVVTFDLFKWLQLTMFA
T3 sequence (P04632 1-268 partner): T1 sequence (P04632 1-268 partner)
Outline: as §1

Compound | IC50 ([1]; Column C) [µM] | IC50 ([2]; Column B) [µM] | IC50 ([3]; Column A) [µM] | IC50 [1] [µM] | IC50 [2] [µM] | IC50 [3] [µM]
NC(=O)C(=O)[C@H](Cc1ccccc1)NC(=O)c1cncn1-c1ncc(-c2ccccc2)s1 [Compound 52, (S)—N-(4-amino-3,4-dioxo-1-phenylbutan-2-yl)-1-(5-phenylthiazol-2-yl)-1H-imidazole-5-carboxamide] | < 3 | < 3 | < 3 | – | – | –
COc1ccc(C[C@H](NC(=O)c2c(C)noc2-c2ccccc2)C(=O)C(N)=O)cc1 [Compound 46, (S)—N-(4-amino-1-(4-methoxyphenyl)-3,4-dioxobutan-2-yl)-3-methyl-5-phenylisoxazole-4-carboxamide] | < 3 | < 3 | < 3 | – | – | –
CC[C@H](NC(=O)c1c(C)noc1-c1ccccc1)C(=O)C(N)=O [Compound 47] | < 3 | < 3 | < 3 | – | – | –
NC(=O)C(=O)[C@H](Cc1ccccc1)NC(=O)c1cncn1-c1cc(-c2ncco2)ccn1 [Compound 88, (S)—N-(4-amino-3,4-dioxo-1-phenylbutan-2-yl)-1-(4-(oxazol-2-yl)pyridin-2-yl)-1H-imidazole-5-carboxamide] | < 3 | < 3 | < 3 | – | – | –
O=C[C@H](Cc1ccccc1)NC(=O)[C@@H]1CCCN1c1nc2ccccc2s1 [Compound 3, (S)-1-(benzo[D]thiazol-2-yl)-N—((S)-1-oxo-3-phenylpropan-2-yl)pyrrolidine-2-carboxamide] | < 3 | < 3 | < 3 | – | – | –
Cc1noc(-c2ccc3c(c2)OCO3)c1C(=O)N[C@@H](Cc1ccccc1)C(=O)C(N)=O [Compound 20, (S)—N-(4-amino-3,4-dioxo-1-phenylbutan-2-yl)-5-(benzo[D][1,3]dioxol-5-yl)-3-methylisoxazole-4-carboxamide] | < 3 | < 3 | < 3 | – | – | –

Second part, the compound after the results:

IC50 ([1]; Column C) [µM] | IC50 ([2]; Column B) [µM] | IC50 ([3]; Column A) [µM] | IC50 [1] [µM] | IC50 [2] [µM] | IC50 [3] [µM] | Compound
3 to 10 | < 3 | < 3 | – | – | – | Cc1cc(C(=O)N[C@@H](Cc2ccccc2)C(=O)C(N)=O)n(-c2ccc(-c3ccccc3)nn2)n1 [Compound 233, (S)—N-(4-amino-3,4-dioxo-1-phenylbutan-2-yl)-3-methyl-1-(6-phenylpyridazin-3-yl)-1H-pyrazole-5-carboxamide]
– | – | – | 3 to 10 | < 3 | < 3 | Cn1cc(C(=O)NC(Cc2ccccc2)C(=O)C(N)=O)c(C2CCCC2)n1 (stereo not drawn) [Compound 620, N-(4-amino-3,4-dioxo-1-phenylbutan-2-yl)-3-cyclopentyl-1-methyl-1H-pyrazole-4-carboxamide]
– | – | – | < 3 | < 3 | < 3 | COc1ccc(F)c(-c2oncc2C(=O)NC(Cc2ccccc2)C(=O)C(N)=O)c1 (stereo not drawn) [Compound 619, N-(4-amino-3,4-dioxo-1-phenylbutan-2-yl)-5-(2-fluoro-5-methoxyphenyl)isoxazole-4-carboxamide]
> 10 | > 10 | > 10 | – | – | – | Cc1cc(C(=O)N[C@@H](Cc2ccccc2)C(=O)C(=O)NC2CC2)n(-c2nc3ccccc3n2C)n1 [Compound 295, (S)—N-(4-(cyclopropylamino)-3,4-dioxo-1-phenylbutan-2-yl)-3-methyl-1-(1-methyl-1H-benzo[d]imidazol-2-yl)-1H-pyrazole-5-carboxamide]
< 3 | < 3 | > 10 | – | – | – | N#Cc1cc(C(=O)N[C@@H](Cc2ccccc2)C(=O)C(N)=O)nn1-c1ccccc1 [Compound 273, (S)—N-(4-amino-3,4-dioxo-1-phenylbutan-2-yl)-5-cyano-1-phenyl-1H-pyrazole-3-carboxamide]
– | – | – | < 3 | < 3 | 3 to 10 | Cn1cc(C(=O)NC(Cc2ccccc2)C(=O)C(N)=O)c(C2CCOCC2)n1 (stereo not drawn) [Compound 617, N-(4-amino-3,4-dioxo-1-phenylbutan-2-yl)-1-methyl-3-(tetrahydro-2H-pyran-4-yl)-1H-pyrazole-4-carboxamide]
– | – | – | < 3 | 3 to 10 | < 3 | Cc1ncc(C(=O)NC(Cc2ccccc2)C(=O)C(N)=O)n1-c1ccccc1 (stereo not drawn) [Compound 318, N-(4-amino-3,4-dioxo-1-phenylbutan-2-yl)-2-methyl-1-phenyl-1H-imidazole-5-carboxamide]
